Results on 1 substance are retold here after US5747327A, “Phospholipase D gene originated from plant” (priority 1993, dated 1998).

The Km is the concentration of substrate that gives half-maximal velocity.

Assay [1] deals with T1, rice bran phospholipase D (PLD), Oryza sativa variety Koshihikari, eluted solution Mono Q 2nd-II (Oryza sativa, UniProt Q43007).
T1 construct: processed N-terminus (residues 1-46 removed according to earlier note), precursor 812 aa
The assay is described as follows: Km of purified rice bran PLD, fraction Mono Q 2nd-II (choline oxidase method). As to conditions: Mono Q 2nd-II fraction; phosphatidylcholine as the substrate, choline quantified by choline oxidase method. Type of assay: biochemical. As to the method: (§1) For the purification, a reference relating to the purification of rice bran PLD (Takano et al., J. Jpn. Soc. Food Sci. Technol., 34, 8-13 (1987)) was referred. The enzyme activity was measured by using phosphatidylcholine as the substrate and by quantifying the choline generated by the enzyme reaction by the choline oxidase method (Imamura et al., J. Biochem. 83, 677-680 (1978)). The enzyme reaction, however, was stopped by heat treatment at 95° C. for 5 minutes.
(§2) The two fractions were analyzed for properties of the enzymes contained therein. […] The pH stability means the range in which decrease in activity was not observed after leaving the enzyme to stand at 25° C. for 30 minutes. The temperature stability was measured by measuring remaining activity after leaving the enzyme to stand at 4° C., 25° C., 37° C. or 50° C. for 30 minutes. The substrate specificity was measured at a substrate concentration of 5 mM and is expressed as a relative activity taking the enzyme activity to phosphatidylcholine as 100.

The target in assay [2] is T2, rice bran phospholipase D (PLD), Oryza sativa variety Koshihikari, eluted solution Mono Q 2nd-I (Oryza sativa, UniProt Q43007).
T2 construct: processed N-terminus (residues 1-46 removed according to earlier note), precursor 812 aa
T2 sequence (Q43007 47-812 P139S): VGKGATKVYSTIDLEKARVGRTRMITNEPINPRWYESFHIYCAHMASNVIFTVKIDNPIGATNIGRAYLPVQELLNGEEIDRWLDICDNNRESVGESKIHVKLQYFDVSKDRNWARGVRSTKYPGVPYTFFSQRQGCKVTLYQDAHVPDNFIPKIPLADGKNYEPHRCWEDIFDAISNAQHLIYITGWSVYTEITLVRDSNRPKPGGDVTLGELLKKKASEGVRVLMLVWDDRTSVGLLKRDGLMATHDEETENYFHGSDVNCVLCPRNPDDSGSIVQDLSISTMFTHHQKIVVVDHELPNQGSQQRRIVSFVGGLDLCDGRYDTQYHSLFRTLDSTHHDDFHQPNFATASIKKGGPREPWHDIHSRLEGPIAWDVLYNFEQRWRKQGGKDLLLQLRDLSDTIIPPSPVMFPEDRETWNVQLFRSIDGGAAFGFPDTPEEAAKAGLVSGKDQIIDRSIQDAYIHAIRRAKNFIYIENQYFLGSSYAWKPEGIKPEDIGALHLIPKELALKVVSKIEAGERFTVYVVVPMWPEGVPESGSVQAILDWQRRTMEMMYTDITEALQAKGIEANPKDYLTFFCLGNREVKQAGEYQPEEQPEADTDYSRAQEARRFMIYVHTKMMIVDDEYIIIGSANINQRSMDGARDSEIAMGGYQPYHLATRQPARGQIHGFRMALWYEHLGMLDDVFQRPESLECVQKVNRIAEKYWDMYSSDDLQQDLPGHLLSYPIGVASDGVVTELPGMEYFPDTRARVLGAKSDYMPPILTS
The assay is described as follows: Km of purified rice bran PLD, fraction Mono Q 2nd-I (choline oxidase method). As to conditions: Mono Q 2nd-I fraction; phosphatidylcholine as the substrate, choline quantified by choline oxidase method. Type of assay: biochemical. The procedure: as §1, §2

T1 sequence (Q43007 47-812 P139S): as above

Consider phosphatidylcholine, for which the Km in assay [1] and in assay [2] was 290 µM throughout.
